Experimental data taken from patent US20230257373A1, “QUORUM SENSING INHIBITORS AND METHODS OF USE” (priority 2020, published 2023).
Where two headings read alike, the source gives them in different places.

Assays:
[1] = system: PluxC-gfp reporter in V. parahaemolyticus; assay: PluxC-gfp reporter in V. parahaemolyticus strains; conditions: Vibrio parahaemolyticus
OpaR = assay: E. coli bioassay expressing OpaR (IPTG-inducible plasmid); type: cell-based, V. parahaemolyticus; conditions: 25 μM PTSP
From the text: (§1) We hypothesized that there were several possible reasons for the observed difference in PTSP inhibition in the various Vibrio species, including but not limited to: 1) differences in LuxR-inhibitor interaction(s), 2) differences in diffusion of the inhibitor across the membranes, or 3) stability of the inhibitor in the cell and/or cell culture. To examine PTSP activity in a common strain background, we cloned the luxR gene from each Vibrio species into a plasmid under control of an IPTG-inducible promoter and assayed the effect of PTSP against these proteins in the E. coli bioassay. […] We conclude that the differences in PTSP activity in Vibrio species is due to differences in interaction between PTSP and the LuxR-type protein in each Vibrio.
(§2) In E. coli assays expressing the five different LuxR-type proteins (luxR, smcR, opaR, vcpR, hapR), slight changes to the protocol were implemented. The luxR genes were cloned under control of the IPTG-inducible Ptac promoter in plasmid pMMB67EH-kanR. […] Strains expressing hapR or smcR required 50 μM IPTG to observe activation of the GFP reporter; IPTG was not added to strains expressing luxR, vcpR, or opaR.

Vibrio strains = assay: luxCDABE reporter across five Vibrio species; conditions: each Vibrio strain except V. cholerae
[2] = system: PluxC-gfp reporter in V. coralliilyticus; assay: PluxC-gfp reporter in V. coralliilyticus strains
[3] = system: V. campbellii protease activity; assay: Protease assay (azocasein) in V. campbellii; conditions: 2.5 μM PTSP vs DMSO
SmcR = SmcR (Vibrio vulnificus, UniProt Q9L8G8); assay: E. coli bioassay expressing SmcR (IPTG-inducible plasmid); type: cell-based, V. vulnificus
From the text: as §1
(§3) We therefore sought to determine if any of the four residues that differ between HapR and LuxR/SmcR in the putative ligand binding pocket are sufficient to render SmcR insensitive to PTSP. First, we introduced substitutions in SmcR to mimic the amino acid sequence of HapR: F75Y, I96L, […], and C170F. […] Next, we introduced single substitutions in HapR to mimic the amino acid present in SmcR: Y76F, L97I, I141V, and F171C.
as §2

V. campbellii = assay: Growth of V. campbellii with inhibitor; type: cell-based; conditions: high concentrations
From the text: Many sulfonamide-containing compounds are known to target the folate synthesis pathway in bacteria and inhibit growth (bacteriostatic), and thus these “sulfa drugs” have been used as broad-spectrum antibiotics for decades (Hammoudeh et al., 2013, Roland et al., 1979). […] We also tested the stability of the inhibitors in bacterial cultures and the timing of the inhibitory effect.

VcpR = assay: E. coli bioassay expressing VcpR (IPTG-inducible plasmid); type: cell-based, V. coralliilyticus; conditions: 25 μM PTSP
From the text: as §1, §2

LuxR = LuxR (Vibrio harveyi, UniProt P21308); assay: EMSA DNA binding activity of LuxR; type: biochemical, V. campbellii; parameters: made in house; host or cells: E. coli BL21(DE3); conditions: saturating concentrations
Description: We noted that Qstatin and PTSP are both predicted to bind in the putative ligand binding pocket of SmcR. It is currently unknown how Qstatin allosterically affects DNA binding through its interactions in the ligand binding domain. […] We therefore also assessed the effect of sulfonamide PTSP on the DNA binding activity of LuxR and SmcR in vitro. […] (Kim et al., 2018).
SmcR and LuxR were purified as described previously. EMSAs were conducted as described previously using oligonucleotides corresponding to the luxC and vvpE promoter sequences. ITC analysis was conducted using purified LuxR or His-tagged SmcR, each in gel-filtration buffer (25 mM Tris pH 7.5, 300 mM NaCl, 0.5 mM EDTA, 1 mM DTT, 2% DMSO). All molecules analyzed were diluted in the same buffer. The samples were degassed for 10 min by vacuum aspiration. Titrations were performed on a Nano-ITC (TA Instruments). […] Thermograms were analyzed using NanoAnalyze software with the independent binding model.

V. cholerae = assay: Quorum sensing reporter in V. cholerae; conditions: even at high concentrations
[4] = system: PluxC-gfp reporter in V. vulnificus; assay: PluxC-gfp reporter in V. vulnificus strains; conditions: Vibrio vulnificus
HapR = assay: E. coli bioassay expressing HapR (IPTG-inducible plasmid); type: cell-based, V. cholerae
From the text: as §1, §3, §2

## O=S(=O)(c1cccs1)n1ccc(-c2ccccc2)n1 [Compound 10B]
[1]; read-out: IC50, V. parahaemolyticus RIMD2210633, luxCDABE reporter plasmid
  IC50: 280 nM
[1]; read-out: Inhibition (IC50) of the PluxC-gfp reporter, Vpara 12-297/B
  IC50: 320 nM
[1]; read-out: Inhibition (IC50) of the PluxC-gfp reporter, Vpara D4
  IC50: 270 nM
[1]; read-out: Inhibition (IC50) of the PluxC-gfp reporter, Vpara RIMD 2210633
  IC50: 170 nM
OpaR
  Inhibition of OpaR in E. coli bioassay: inhibited
Vibrio strains
  IC50 values lower than Qstatin: ~10 fold
[2]; read-out: IC50, V. coralliilyticus OCN008, luxCDABE reporter plasmid
  IC50: 2200 nM
[2]; read-out: Inhibition (IC50) of the PluxC-gfp reporter, Vcoral OCN 008
  IC50: 1430 nM
[2]; read-out: Inhibition (IC50) of the PluxC-gfp reporter, Vcoral OCN 014
  IC50: 2370 nM
[3]
  Protease activity of wild-type strain: significantly reduced protease activity
SmcR; 25 μM PTSP
  Inhibition of SmcR in E. coli bioassay: inhibited
SmcR; SmcR substitution C170F
  Inhibition of SmcR C170F: abolished PTSP inhibition
SmcR; SmcR substitution F75Y
  Inhibition of SmcR F75Y: abolished PTSP inhibition
SmcR; SmcR substitution I96L
  Inhibition of SmcR I96L: not significantly different from wild-type SmcR
SmcR; SmcR substitution V1401
  Inhibition of SmcR V1401: not significantly different from wild-type SmcR
V. campbellii
  Growth rate or growth yield: did not alter growth rate or growth yield
VcpR
  Inhibition of VcpR in E. coli bioassay: inhibited
LuxR
  DNA binding to LuxR: did not alter DNA binding
V. cholerae
  Inhibition in V. cholerae (in words): not active
[4]; ATCC27562, read-out: IC50, V. vulnificus ATCC 27562, luxCDABE reporter plasmid
  IC50: 40 nM
[4]; ATCC27562, read-out: Inhibition (IC50) of the PluxC-gfp reporter, Vvul ATCC 27562
  IC50: 1.96 nM
[4]; read-out: IC50, V. vulnificus, b235
  IC50: 2 nM
[4]; read-out: IC50 values for all three V. vulnificus clinical isolates, three clinical isolates
  IC50: 2 to 30 nM
[4]; read-out: Inhibition (IC50) of the PluxC-gfp reporter, Vvul CMPC6
  IC50: 29.5 nM
[4]; read-out: Inhibition (IC50) of the PluxC-gfp reporter, Vvul YJ016
  IC50: 3.78 nM
HapR; 25 μM PTSP
  Inhibition of HapR in E. coli bioassay: unresponsive
HapR; HapR Y76F, L97I, I141V, F171C, each alone
  Inhibition of HapR single substitutions: none of these substitutions alone were sufficient to make HapR sensitive
HapR; combination of Y76F and F171C
  Inhibition of HapR Y76F and F171C combination: did not result in PTSP inhibition
